Experimental data taken from paper PMC5391474, “Investigation of the Role of Protein Kinase D in Human Rhinovirus Replication” (Journal of Virology, 2017).

Legend:
Assay in all cases: biochemical
Set-up in all cases: in vitro kinase selectivity panel, protein and lipid kinases, single concentration, ATP at Km
Settings in all cases: ATP at Km
[1] = biological target: T1, Abl(h) (Homo sapiens, UniProt P00519)
T1 construct: gene ABL1
Experimental: (§1) CRT0066101 was described previously ([48]) and was purchased for this study from Tocris, with a purity of 99.9%. CRT0066101 (XX-209) and compound XX-050 were synthesized as previously described ([68]). CRT0066051 (Y-095) was also synthesized as previously described ([69]). […] CRT0066101 can also be obtained in larger quantities from Ximbio. Inhibitors were tested in in vitro PKD kinase assays and cellular assays on PANC1 cells as previously described ([48]). The selectivity of the three PKD inhibitors was determined against a panel of protein and lipid kinases by Eurofins and the MRC PPU International Centre for Kinase Profiling (http://www.kinase-screen.mrc.ac.uk), respectively. Each inhibitor was tested at a single concentration of 1 μM and at an ATP concentration equivalent to the Km for each kinase. Having shown that HRV infection appears to activate PKD, we went on to explore the influence of chemical inhibitors of PKD on HRV replication. The compound CRT0066101 is a specific and potent PKD inhibitor that has been used in studies exploring its potential as an anticancer target ([48], [51]). This inhibitor has a 50% inhibitory concentration (IC50) of 1 nM against purified PKD in biochemical assays and a 50% effective concentration (EC50) of 1 μM in a cell-based assay (Table 1). We pretreated HeLa cells with increasing concentrations of the drug for 1 h followed by infection with HRV16. Viral replication was subsequently measured at 6 hpi by quantitative real-time PCR (qRT-PCR) (Fig. 2A) and by Western blotting using an antibody against the viral nonstructural protein 2C (Fig. 2B). […] Furthermore, we tested two novel and structurally different PKD inhibitors (CRT0066051 and XX-050) (Table 1) and confirmed that they too inhibited HRV 2C expression although with different potencies (Fig. 2D). Kinase selectivity profiling of all three PKD inhibitors was performed against a panel of protein and lipid kinases at a drug concentration of 1 μM and at an ATP concentration equivalent to the Km of each kinase (see Table S1 in the supplemental material). […] Since PKD is known to be involved in regulating the architecture of the Golgi apparatus, we confirmed the pharmacodynamic effect of these inhibitors by demon

[2] = biological target: CDK1/cyclinB(h) (Homo sapiens, UniProt P06493)
Experimental: as §1

[3] = biological target: T2, CK1γ2(h) (Homo sapiens, UniProt P78368)
T2 construct: gene CSNK1G2
Experimental: as §1

[4] = biological target: T3, CK2(h) (Homo sapiens, UniProt P68400)
T3 construct: gene CSNK2A1
Experimental: as §1

[5] = biological target: EGFR(h) (Homo sapiens, UniProt P00533)
Experimental: as §1

[6] = biological target: T4, Fms(h) (Homo sapiens, UniProt P07333)
T4 construct: gene CSF1R
Experimental: as §1

[7] = biological target: HIPK2(h) (Homo sapiens, UniProt Q9H2X6)
Experimental: as §1

[8] = biological target: T5, MST3(h) (Homo sapiens, UniProt Q9Y6E0)
T5 construct: gene STK24
Experimental: as §1

[9] = biological target: T6, Mer(h) (Homo sapiens, UniProt Q12866)
T6 construct: gene MERTK
Experimental: as §1

[10] = biological target: NEK2(h) (Homo sapiens, UniProt P51955)
Experimental: as §1

[11] = biological target: T7, PIK4A (Homo sapiens, UniProt P42356)
T7 construct: gene PI4KA
Experimental: as §1

[12] = biological target: T8, PIK4B (Homo sapiens, UniProt Q9UBF8)
T8 construct: gene PI4KB
Experimental: as §1

[13] = biological target: T9, PKCβI(h) (Homo sapiens, UniProt P05771)
T9 construct: gene PRKCB; isoform beta I
Experimental: as §1

[14] = biological target: T10, PKCγ(h) (Homo sapiens, UniProt P05129)
T10 construct: gene PRKCG
Experimental: as §1

[15] = biological target: T11, PKCζ(h) (Homo sapiens, UniProt Q05513)
T11 construct: gene PRKCZ
Experimental: as §1

[16] = biological target: T12, PKD2(h) (Homo sapiens, UniProt Q9BZL6)
T12 construct: gene PRKD2
Experimental: as §1

[17] = biological target: SPHK2 (Homo sapiens, UniProt Q9NRA0)
Experimental: as §1

[18] = biological target: T13, c-RAF(h) (Homo sapiens, UniProt P04049)
T13 construct: gene RAF1
Experimental: as §1

T5 sequence (Q9Y6E0 whole entry): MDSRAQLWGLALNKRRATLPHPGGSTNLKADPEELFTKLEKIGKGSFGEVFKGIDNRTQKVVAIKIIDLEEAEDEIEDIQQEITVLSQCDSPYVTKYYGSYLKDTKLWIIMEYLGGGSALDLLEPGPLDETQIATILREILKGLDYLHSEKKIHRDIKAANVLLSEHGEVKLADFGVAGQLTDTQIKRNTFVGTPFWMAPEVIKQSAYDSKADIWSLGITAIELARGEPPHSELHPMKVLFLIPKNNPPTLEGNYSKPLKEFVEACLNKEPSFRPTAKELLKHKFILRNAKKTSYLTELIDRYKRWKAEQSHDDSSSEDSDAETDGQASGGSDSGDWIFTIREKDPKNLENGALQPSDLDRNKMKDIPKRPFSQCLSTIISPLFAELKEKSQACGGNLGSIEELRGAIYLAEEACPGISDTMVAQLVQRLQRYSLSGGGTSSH
Chain of NEK2(h) (P51955 whole entry): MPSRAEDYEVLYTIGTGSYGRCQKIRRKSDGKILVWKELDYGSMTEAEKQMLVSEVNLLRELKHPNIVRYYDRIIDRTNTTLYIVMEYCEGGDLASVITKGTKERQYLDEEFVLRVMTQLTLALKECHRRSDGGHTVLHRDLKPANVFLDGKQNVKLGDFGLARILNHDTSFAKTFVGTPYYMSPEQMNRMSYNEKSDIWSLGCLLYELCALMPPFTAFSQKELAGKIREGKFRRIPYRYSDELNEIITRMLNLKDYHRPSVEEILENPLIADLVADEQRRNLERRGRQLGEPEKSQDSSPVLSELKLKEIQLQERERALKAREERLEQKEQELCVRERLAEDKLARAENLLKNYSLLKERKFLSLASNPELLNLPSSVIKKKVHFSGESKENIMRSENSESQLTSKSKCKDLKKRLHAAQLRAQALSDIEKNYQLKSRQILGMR
T4 sequence (P07333 whole entry): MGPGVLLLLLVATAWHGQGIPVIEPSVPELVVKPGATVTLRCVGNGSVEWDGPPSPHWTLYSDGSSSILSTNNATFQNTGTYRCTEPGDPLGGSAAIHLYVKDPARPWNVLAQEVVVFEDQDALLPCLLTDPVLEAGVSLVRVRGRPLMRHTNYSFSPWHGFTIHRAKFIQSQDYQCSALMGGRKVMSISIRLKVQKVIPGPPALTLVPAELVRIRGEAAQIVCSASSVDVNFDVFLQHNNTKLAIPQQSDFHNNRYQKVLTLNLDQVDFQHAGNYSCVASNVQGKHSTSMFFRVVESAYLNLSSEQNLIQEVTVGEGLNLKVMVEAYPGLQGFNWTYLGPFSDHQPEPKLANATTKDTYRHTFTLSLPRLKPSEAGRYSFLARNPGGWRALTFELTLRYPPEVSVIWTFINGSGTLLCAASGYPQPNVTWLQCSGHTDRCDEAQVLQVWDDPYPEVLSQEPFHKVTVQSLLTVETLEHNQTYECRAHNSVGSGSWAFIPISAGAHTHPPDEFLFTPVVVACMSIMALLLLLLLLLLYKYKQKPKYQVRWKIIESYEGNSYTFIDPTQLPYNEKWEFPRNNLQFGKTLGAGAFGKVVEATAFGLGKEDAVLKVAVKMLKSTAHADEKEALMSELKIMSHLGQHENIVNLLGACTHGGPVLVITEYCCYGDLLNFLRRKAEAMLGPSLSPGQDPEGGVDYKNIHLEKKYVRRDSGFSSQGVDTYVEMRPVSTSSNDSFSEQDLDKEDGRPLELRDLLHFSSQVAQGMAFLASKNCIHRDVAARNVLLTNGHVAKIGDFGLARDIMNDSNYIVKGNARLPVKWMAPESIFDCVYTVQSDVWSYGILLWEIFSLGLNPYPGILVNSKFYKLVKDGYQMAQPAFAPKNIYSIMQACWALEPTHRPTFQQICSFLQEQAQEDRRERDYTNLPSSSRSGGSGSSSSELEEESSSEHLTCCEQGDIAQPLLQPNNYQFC
T7 sequence (P42356 whole entry): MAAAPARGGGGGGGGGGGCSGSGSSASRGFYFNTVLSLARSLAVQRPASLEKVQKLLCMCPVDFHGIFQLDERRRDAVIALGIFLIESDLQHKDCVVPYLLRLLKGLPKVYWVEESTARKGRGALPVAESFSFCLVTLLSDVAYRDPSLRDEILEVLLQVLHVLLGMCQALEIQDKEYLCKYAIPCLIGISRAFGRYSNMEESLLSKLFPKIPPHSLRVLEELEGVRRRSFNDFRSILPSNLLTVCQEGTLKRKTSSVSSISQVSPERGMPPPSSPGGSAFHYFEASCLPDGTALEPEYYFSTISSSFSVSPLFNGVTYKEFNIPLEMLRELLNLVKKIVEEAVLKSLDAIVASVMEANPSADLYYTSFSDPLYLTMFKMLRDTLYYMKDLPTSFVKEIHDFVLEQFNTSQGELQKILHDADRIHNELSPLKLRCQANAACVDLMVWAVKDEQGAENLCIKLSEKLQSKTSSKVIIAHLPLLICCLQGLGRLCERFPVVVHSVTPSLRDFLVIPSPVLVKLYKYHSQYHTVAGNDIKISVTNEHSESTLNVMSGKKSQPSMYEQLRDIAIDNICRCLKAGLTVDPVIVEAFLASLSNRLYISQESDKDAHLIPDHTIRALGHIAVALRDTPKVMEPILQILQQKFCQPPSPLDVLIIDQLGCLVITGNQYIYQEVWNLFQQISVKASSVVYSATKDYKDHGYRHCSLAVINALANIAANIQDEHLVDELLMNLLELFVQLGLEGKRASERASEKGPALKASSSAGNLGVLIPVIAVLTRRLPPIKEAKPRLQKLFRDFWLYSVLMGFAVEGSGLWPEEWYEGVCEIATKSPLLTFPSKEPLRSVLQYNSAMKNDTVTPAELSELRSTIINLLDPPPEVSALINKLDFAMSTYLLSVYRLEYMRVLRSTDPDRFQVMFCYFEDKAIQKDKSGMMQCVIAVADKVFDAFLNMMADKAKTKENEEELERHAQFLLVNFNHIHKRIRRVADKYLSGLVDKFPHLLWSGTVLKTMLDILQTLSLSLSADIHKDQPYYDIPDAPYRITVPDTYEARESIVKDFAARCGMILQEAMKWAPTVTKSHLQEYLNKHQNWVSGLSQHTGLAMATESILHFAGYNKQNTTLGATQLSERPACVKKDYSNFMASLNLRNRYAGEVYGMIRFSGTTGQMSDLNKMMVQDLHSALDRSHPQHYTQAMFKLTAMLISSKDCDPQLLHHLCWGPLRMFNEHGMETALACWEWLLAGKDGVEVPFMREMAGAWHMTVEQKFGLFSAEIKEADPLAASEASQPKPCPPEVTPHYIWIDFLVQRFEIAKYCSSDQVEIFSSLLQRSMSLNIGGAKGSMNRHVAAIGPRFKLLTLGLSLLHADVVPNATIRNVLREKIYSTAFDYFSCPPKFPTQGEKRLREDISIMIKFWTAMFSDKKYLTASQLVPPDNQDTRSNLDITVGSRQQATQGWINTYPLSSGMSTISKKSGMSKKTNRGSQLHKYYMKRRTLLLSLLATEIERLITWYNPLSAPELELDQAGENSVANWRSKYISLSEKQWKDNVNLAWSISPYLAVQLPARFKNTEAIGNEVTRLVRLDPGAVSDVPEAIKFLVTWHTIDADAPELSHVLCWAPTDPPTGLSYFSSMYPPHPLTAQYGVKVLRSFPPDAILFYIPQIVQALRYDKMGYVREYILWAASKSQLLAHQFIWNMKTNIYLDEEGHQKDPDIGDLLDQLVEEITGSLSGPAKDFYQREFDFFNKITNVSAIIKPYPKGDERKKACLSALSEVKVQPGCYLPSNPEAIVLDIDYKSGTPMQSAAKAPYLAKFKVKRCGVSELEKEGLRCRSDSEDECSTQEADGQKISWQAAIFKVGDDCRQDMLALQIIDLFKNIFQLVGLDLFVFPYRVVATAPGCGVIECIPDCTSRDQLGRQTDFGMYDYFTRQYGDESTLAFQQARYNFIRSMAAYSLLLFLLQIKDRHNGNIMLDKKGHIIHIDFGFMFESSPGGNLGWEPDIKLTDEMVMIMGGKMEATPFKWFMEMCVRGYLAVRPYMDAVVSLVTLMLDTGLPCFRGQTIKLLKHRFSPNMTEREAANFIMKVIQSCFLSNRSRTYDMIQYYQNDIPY
Chain of CDK1/cyclinB(h) (P06493 whole entry): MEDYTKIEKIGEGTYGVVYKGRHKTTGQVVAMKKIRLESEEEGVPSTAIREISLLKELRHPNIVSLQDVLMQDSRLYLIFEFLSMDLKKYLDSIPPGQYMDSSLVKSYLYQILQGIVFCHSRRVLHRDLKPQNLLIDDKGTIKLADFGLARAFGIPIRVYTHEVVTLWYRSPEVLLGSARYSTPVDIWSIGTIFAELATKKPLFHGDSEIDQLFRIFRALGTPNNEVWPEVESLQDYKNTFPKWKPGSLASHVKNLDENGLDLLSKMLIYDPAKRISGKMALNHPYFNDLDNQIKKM
Chain of CDK1/cyclinB(h) (P14635 whole entry partner): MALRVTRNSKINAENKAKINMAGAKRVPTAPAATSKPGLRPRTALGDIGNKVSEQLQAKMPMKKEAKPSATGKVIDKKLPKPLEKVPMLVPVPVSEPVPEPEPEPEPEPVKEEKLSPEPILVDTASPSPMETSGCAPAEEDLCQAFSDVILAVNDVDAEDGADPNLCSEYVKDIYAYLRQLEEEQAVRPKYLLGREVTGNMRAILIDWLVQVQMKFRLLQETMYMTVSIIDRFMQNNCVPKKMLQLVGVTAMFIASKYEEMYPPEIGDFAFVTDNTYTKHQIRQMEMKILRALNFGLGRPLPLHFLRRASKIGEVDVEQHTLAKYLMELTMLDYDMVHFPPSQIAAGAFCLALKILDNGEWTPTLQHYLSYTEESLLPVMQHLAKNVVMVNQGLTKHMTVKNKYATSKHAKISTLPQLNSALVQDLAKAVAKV

SMILES: CC[C@@H](N)CNc1ccnc(-c2cc(-c3cnn(C)c3)ccc2O)n1 [CRT0066101]
- inhibition at 1 µM [1]: -13%
- inhibition at 1 µM [2]: 63%
- inhibition at 1 µM [3]: 0%
- inhibition at 1 µM [4]: 19%
- inhibition at 1 µM [5]: -6%
- inhibition at 1 µM [6]: 12%
- inhibition at 1 µM [7]: 55%
- inhibition at 1 µM [8]: -6%
- inhibition at 1 µM [9]: 66%
- inhibition at 1 µM [10]: 0%
- inhibition at 1 µM [11]: -11%
- inhibition at 1 µM [12]: 33%
- inhibition at 1 µM [13]: 11%
- inhibition at 1 µM [14]: 7%
- inhibition at 1 µM [15]: -8%
- inhibition at 1 µM [16]: 96%
- inhibition at 1 µM [17]: 20%
- inhibition at 1 µM [18]: 4%
